In patent US20210369753A1, “NUTRIENT COMPOSITION ABLE TO INHIBIT QUORUM SENSING” (Brilliant Lab LLC, priority 2020, published 2021):
Where two headings read alike, the source gives them in different places.

What was measured:
P. aeruginosa = settings: cited from earlier work
C. violaceum = settings: cited from earlier work
E. coli = E. coli O157:H7; cited from earlier work
Acinetobacter = settings: cited from earlier work
Burkholderia = settings: cited from earlier work
[1] = system: P. aeruginosa (ATCC 10145); test: Biofilm assay (crystal violet); type: cell-based, Pseudomonas aeruginosa; settings: 0.25-5 mg/mL, overnight, crystal violet OD 590 nm
Experimental: (§1) Biofilm assay: The biofilm assay was based on the method of Chong, et al. (2011). The model composition and Catechin were prepared at 100 mg/mL in ethanol. Appropriate volumes of each were added to eight replicate wells of a v-well 96-well plate to result in 0.25, 0.5, 1.25 and 5 mg/mL final concentrations for a 200 microliter final volume. The plate was air dried until all of the ethanol has evaporated. From fresh overnight cultures of P. aeruginosa (ATCC 10145) and S. aureus (ATCC 12600), solutions at OD600 of 0.1 were prepared in Nutrient broth/0.5% glucose. Two hundred microliters of the cultures were added to all wells and mixed by pipetting. The plates were covered with breathable films and incubated overnight without shaking at 37 degrees C. The cultures were removed, and the plates rinsed several times with water. Two hundred microliters of 0.1% crystal violet was added to each well and incubated at room temperature for 30 minutes. […] One hundred microliters of the solubilized crystal violet was transferred to a flat-bottom polystyrene plate and the optical density measured at 590 nm.
(§2) BIOFILM ASSAY: The composition of EXAMPLE XI was evaluated for anti-biofilm activity against Pseudomonas aeruginosa and Staphylococcus aureus. […]
(§3) The plates were incubated statically overnight. […] The crystal violet was quantified by measuring the optical density at 590 nm.

[2] = system: Chromobacterium violaceum (CV026); test: Halo assay (anti-quorum sensing); type: cell-based; settings: CV026 agar plate; for Catechin at the highest concentrations
[3] = system: Pseudomonas aeruginosa (ATCC 10145); test: Pyocyanin assay; type: cell-based; settings: overnight culture, test materials in DMSO and in ethanol
C. violaceum (CV026) = test: Violaceum assay (modified, butanol extraction); type: cell-based, Chromobacterium violaceum
Experimental: SUMMARY OF METHODS: (+)-Catechin was used as a positive control in the halo and violaceum assays. Varying concentrations of the composition of EXAMPLE XI or catechin mixed with C. violaceum were added to an agar plate and the generated halo was analyzed both by visual inspection and measurement. Method for Violaceum assays included adding either the composition of EXAMPLE XI or catechin to a solution of C. violaceum (strain CV026). After workup, the solutions were transferred to a 96 well plate and optical density was recorded at 590 nm. Optical density values were normalized to unextracted samples as a control.
Violaceum Assay: The violaceum assay was adapted from the method of Blosser, et al., Journal of Microbiological Methods 2000, 40, pp. 47-55. The model composition and Catechin were suspended/dissolved in ethanol. […] The OD600 of each culture was measured to be used to normalize violaceum levels to total biomass. […] The optical density was measured at 590 nm. The OD590 values were normalized to the biomass measurements determined for the unextracted samples.
VIOLACEUM ASSAY: The Violaceum assay was performed to further corroborate the results obtained in the Halo assay and to provide a quantitative measure of activity. This assay is based on the same principles as for the Halo assay, but since the assay is performed in solution, violaceum production can be more readily quantified. […]

S. aureus (ATCC 12600) = test: Biofilm assay (crystal violet); type: cell-based, Staphylococcus aureus; settings: 0.25-5 mg/mL, overnight, crystal violet OD 590 nm
Experimental: as §1, §2, §3

S. aureus = settings: cited from earlier work
P. fluorescens = settings: cited from earlier work
[4] = P. aeruginosa, strain not stated

C[S+]([O-])CCCCN=C=S (centres unmarked) [Sulforaphane]
inhibition of quorum sensing (P. aeruginosa; [4]): inhibits quorum sensing

O=C1C[C@@H](c2ccc(O)cc2)Oc2cc(O)cc(O)c21 [Naringenin]
inhibition of quorum sensing (P. aeruginosa; P. aeruginosa PAO1): inhibits quorum sensing

O=C(/C=C/c1ccc(O)c(O)c1)O[C@@H]1C[C@](O)(C(=O)O)C[C@@H](O)[C@H]1O [Chlorogenic acid]
inhibition of quorum sensing (P. aeruginosa; [4]): inhibits quorum sensing

O=CC=Cc1ccccc1 [Cinnamaldehyde]
inhibition of quorum sensing (C. violaceum; C. violaceum CV026): inhibits quorum sensing | inhibition of quorum sensing (P. aeruginosa; P. aeruginosa PAO1): inhibits quorum sensing

O=C(/C=C/c1ccc(O)c(O)c1)O[C@H](Cc1ccc(O)c(O)c1)C(=O)O [Rosmarinic acid]
inhibition of quorum sensing (C. violaceum; C. violaceum 31532): inhibits quorum sensing | inhibition of quorum sensing (C. violaceum; C. violaceum CV026): inhibits quorum sensing | inhibition of quorum sensing (P. aeruginosa; P. aeruginosa PAO1): inhibits quorum sensing | inhibition of quorum sensing (E. coli): inhibits quorum sensing

O=C1OCC2OC(=O)c3cc(O)c(O)c(O)c3-c3c(O)c(O)c(O)c4c3C(=O)OC(C2OC(=O)c2cc(O)c(O)c(O)c2-c2c1cc(O)c(O)c2O)C1OC(=O)c2c-4c(O)c(O)c(O)c2C1O (centres unmarked) [Vescalagin]
inhibition of quorum sensing (P. aeruginosa; [4]): inhibits quorum sensing | inhibition of quorum sensing (Acinetobacter): inhibits quorum sensing | inhibition of quorum sensing (Burkholderia): inhibits quorum sensing

(+)-Catechin
anti-biofilm activity [1]: similar | bacterial growth in halo assay [2]: antibiotic effect inhibiting growth of the bacteria | effect on pyocyanin production [3]: slightly enhances production | inhibition of violaceum production (quorum sensing) (C. violaceum (CV026); highest concentration tested, 5 mg/mL, OD590 normalized to biomass): over 85% | inhibition of violaceum production (C. violaceum (CV026); three lowest concentrations tested (1.25, 0.5 and 0.25 mg/mL)): 10-25% | anti-biofilm activity (S. aureus (ATCC 12600)): similar

O=C(O)[C@H]1O[C@@H](Oc2cc3oc(-c4ccccc4)cc(=O)c3c(O)c2O)[C@H](O)[C@@H](O)[C@@H]1O [Baicalin]
inhibition of quorum sensing (C. violaceum; C. violaceum CV026): inhibits quorum sensing | inhibition of quorum sensing (S. aureus): inhibits quorum sensing

COc1ccc([C@@H]2CC(=O)c3c(O)cc(O[C@@H]4O[C@H](CO[C@@H]5O[C@@H](C)[C@H](O)[C@@H](O)[C@H]5O)[C@@H](O)[C@H](O)[C@H]4O)cc3O2)cc1O [Hesperidin]
inhibition of quorum sensing (C. violaceum; C. violaceum, strain not stated): inhibits quorum sensing | inhibition of quorum sensing (P. fluorescens): inhibits quorum sensing

O=C(O[C@@H]1Cc2c(O)cc(O)cc2O[C@@H]1c1cc(O)c(O)c(O)c1)c1cc(O)c(O)c(O)c1 [EGCG]
inhibition of quorum sensing (P. aeruginosa; [4]): inhibits quorum sensing
